From patent US12310929B2, “Use of rasagiline for the treatment of restless legs syndrome” (TEVA PHARMACEUTICAL INDUSTRIES, LTD., priority 2006, dated 2025)

Tests used:
RLS = conditions: treatment of RLS; cited from earlier work
[1] = test system: 6-hydroxydopamine lesioned rats; conditions: treated lesioned rats compared with untreated lesioned rats
Procedure: 6-hydroxydopamine is an agent that selectively disrupts or destroys catecholaminergic systems. Thus, stereotaxic bilateral 6-hydroxydopamine lesions into the nucleus of dopaminergic diencephalic spinal neurons (A11) are performed to effect behavior consistent, although not specific, with what would be expected in a rat model of RLS. (Ondo W. G. et al., Clinical Correlates of 6-Hydroxydopamine Injections into A11 Dopaminergic Neurons in Rats: A Possible Model for Restless Leg Syndrome, Mov. Disord., 2000, 15(1):154-8)

SMILES | quality of sleep, frequency of waking up, periodic leg movement during sleep (RLS) | soporiferous latency (RLS) | number of standing episodes [1] | total standing time [1]
Clc1cccc(Cl)c1N=C1NCCN1 [Clonidine] | no effect | reduced |  | 
C#CCN[C@@H]1CCc2ccccc21.CS(=O)(=O)O [R(+)PAI mesylate, R(+)-N-propargyl-1-aminoindan mesylate] |  |  | fewer standing episodes | less total standing time
